Source: patent US10208047B2, “Tertiary alcohol imidazopyrazine BTK inhibitors” (Merck Sharp & Dohme Corp., priority 2014, dated 2019)

Molecular target: BTK enzyme (recombinant full-length BTK, hBTK) (Homo sapiens (Human), UniProt Q06187)
Assay: Btk enzyme activity assay, LANCE TR-FRET
Format: biochemical
Details: 50 pM hBTK, 2 μM biotin-A5-peptide, 25 μM ATP, 60 minute compound & enzyme incubation, compound range 1 μM to 0.017 nM, read-out: BTK binding IC50
Description: Btk Enzyme Activity Assay Methods
BTK enzymatic activity was determined with the LANCE (Lanthanide Chelate Excite) TR-FRET (Time-resolved fluorescence resonance energy transfer) assay. In this assay, the potency (IC50) of each compound was determined from an eleven point (1:3 serial dilution; final compound concentration range in assay from 1 μM to 0.017 nM) titration curve using the following outlined procedure. To each well of a black non-binding surface Corning 384-well microplate (Corning Catalog #3820), 5 nL of compound (2000 fold dilution in final assay volume of 10 μL) was dispensed, followed by the addition of 7.5 μL of 1× kinase buffer (50 mM Hepes 7.5, 10 mM MgCl2, 0.01% Brij-35, 1 mM EGTA, 0.05% BSA & 1 mM DTT) containing 5.09 pg/μL (66.67 pM) of BTK enzyme (recombinant protein from baculovirus-transfected Sf9 cells: full-length BTK, 6HIS-tag cleaved). Following a 60 minute compound & enzyme incubation, each reaction was initiated by the addition of 2.5 μL 1× kinase buffer containing 8 μM biotinylated “A5” peptide (Biotin-EQEDEPEGDYFEWLE-NH2) (SEQ.ID.NO.: 1), and 100 μM ATP. The final reaction in each well of 10 μL consists of 50 pM hBTK, 2 μM biotin-A5-peptide, and 25 μM ATP. Phosphorylation reactions were allowed to proceed for 120 minutes. Reactions were immediately quenched by the addition of 20 uL of 1× quench buffer (15 mM EDTA, 25 mM Hepes 7.3, and 0.1% Triton X-100) containing detection reagents (0.626 nM of LANCE-Eu-W1024-anti-phosphoTyrosine antibody, PerkinElmer and 86.8 nM of Streptavidin-conjugated Dylight 650, Dyomics/ThermoFisher Scientific). After 60 minutes incubation with detection reagents, reaction plates were read on a PerkinElmer EnVision plate reader using standard TR-FRET protocol. Briefly, excitation of donor molecules (Eu-chelate:anti-phospho-antibody) with a laser light source at 337 nm produces energy that can be transferred to Dylight-650 acceptor molecules if this donor:acceptor pair is within close proximity. Fluorescence intensity at both 665 nm (acceptor) and 615 nm (donor) are measured and a TR-FRET ratio calculated for each well (acceptor intensity/donor intensity). IC50 values were determined by 4 parameter robust fit of TR-FRET ratio values vs. (Log10) compound concentrations.

Chain of BTK enzyme (recombinant full-length BTK, hBTK) (Q06187 whole entry): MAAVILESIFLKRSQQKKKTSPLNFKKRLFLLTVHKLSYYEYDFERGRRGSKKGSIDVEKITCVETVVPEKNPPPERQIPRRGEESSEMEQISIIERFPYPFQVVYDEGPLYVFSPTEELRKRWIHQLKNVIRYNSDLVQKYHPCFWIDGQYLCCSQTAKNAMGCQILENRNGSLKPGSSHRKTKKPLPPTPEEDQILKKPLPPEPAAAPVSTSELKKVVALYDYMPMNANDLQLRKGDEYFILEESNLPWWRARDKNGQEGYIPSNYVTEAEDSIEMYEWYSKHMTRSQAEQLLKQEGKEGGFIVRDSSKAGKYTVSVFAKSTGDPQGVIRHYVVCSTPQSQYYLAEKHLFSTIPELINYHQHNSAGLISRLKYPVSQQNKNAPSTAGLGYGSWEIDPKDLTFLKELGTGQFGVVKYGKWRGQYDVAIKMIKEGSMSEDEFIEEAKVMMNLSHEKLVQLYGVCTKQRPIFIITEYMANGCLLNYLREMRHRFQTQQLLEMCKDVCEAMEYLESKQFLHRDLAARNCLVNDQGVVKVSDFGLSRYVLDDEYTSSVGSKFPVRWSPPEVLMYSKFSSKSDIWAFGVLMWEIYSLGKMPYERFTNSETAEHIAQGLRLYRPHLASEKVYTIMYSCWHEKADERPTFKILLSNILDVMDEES

Row | SMILES | IC50 [nM]
1 | CC1(C(=O)O)CCC(C)(c2nc(-c3ccc([C@@](C)(O)c4cccc(C(F)F)c4)cc3)c3c(N)nccn23)CC1 (stereo partly drawn) [Example 33, 4-[8-amino-1-(4-{(1R)-1-[3-(difluoromethyl)phenyl]-1-hydroxyethyl}phenyl)imidazo[1,5-a]pyrazin-3-yl]-1,4-dimethylcyclohexanecarboxylic acid] | 11.4
2 | CC1(C)[C@H](c2nc(-c3ccc([C@@](C)(O)c4cccc(C(F)F)c4)cc3)c3c(N)ncc(F)n23)CC[C@]1(C)C(=O)O [Example 34, (1S,3R)-3-[8-amino-1-(4-{(1R)-1-[3-(difluoromethyl)phenyl]-1-hydroxyethyl}phenyl)-5-fluoroimidazo[1,5-a]pyrazin-3-yl]-1,2,2-trimethylcyclopentanecarboxylic acid] | 2.4
3 | C[C@@](O)(c1ccc(-c2nc([C@@H]3C[C@@H]4[C@H](C3)[C@@H]4C(=O)O)n3ccnc(N)c23)cc1)c1cccc(C(F)(F)F)c1 [Example 35, (1R,3r,5S,6s)-3-[8-amino-1-(4-{(1R)-1-hydroxy-1-[3-(trifluoromethyl)phenyl]ethyl}phenyl)imidazo[1,5-a]pyrazin-3-yl]bicyclo[3.1.0]hexane-6-carboxylic acid] | 15.7
4 | C[C@@](O)(c1ccc(-c2nc([C@@H]3C[C@@H]4[C@H](C3)[C@H]4C(=O)O)n3ccnc(N)c23)cc1)c1cccc(C(F)(F)F)c1 [Example 36, (1R,3R,5S,6r)-3-[8-amino-1-(4-{(1R)-1-hydroxy-1-[3-(trifluoromethyl)phenyl]ethyl}phenyl)imidazo[1,5-a]pyrazin-3-yl]bicyclo[3.1.0]hexane-6-carboxylic acid] | 1.1

Other lines, results leading:

Row | IC50 [nM] | SMILES
5 | 133 | CC(C)[C@]1(C(=O)O)CC[C@H](c2nc(-c3ccc([C@@](C)(O)c4cccc(C(F)F)c4)cc3)c3c(N)ncc(Cl)n23)C1 [Example 31, (1S,3S)-3-[8-amino-5-chloro-1-(4-{(1R)-1-[3-(difluoromethyl)phenyl]-1-hydroxyethyl}phenyl)imidazo[1,5-a]pyrazin-3-yl]-1-(1-methylethyl)cyclopentanecarboxylic acid]
6 | 41.8 | CC(C)[C@@]1(C(=O)O)CC[C@@H](c2nc(-c3ccc([C@@](C)(O)c4cccc(C(F)F)c4)cc3)c3c(N)ncc(Cl)n23)C1 [Example 32, (1R,3R)-3-[8-amino-5-chloro-1-(4-{(1R)-1-[3-(difluoromethyl)phenyl]-1-hydroxyethyl}phenyl)imidazo[1,5-a]pyrazin-3-yl]-1-(1-methylethyl)cyclopentanecarboxylic acid]
